Values joined by “and” are separate entries in the source; they are usually repeats but may differ in a detail not shown here. Equal values may be shown once. Toxic doses and inconclusive results are not listed.
Tested on: P388 leukemia ip, CD2F1 mice, survival T/C
Assay: NCI In Vivo Anticancer Drug Screen. Data for tumor model P388 Leukemia (intraperitoneal) in CD2F1 (CDF1) mice
Details: endpoint: median survival time, higher = longer survival
How it was run: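 Mice carrying the transplanted tumor received test compound or vehicle. Survival was recorded in each group, and the value is the treated-group measurement divided by that of the vehicle-treated control group.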

[1] = dose: 50.0 mg/kg/injection, schedule: Q01DX005 (ip), vehicle: saline with Tween-80
[2] = dose: 100.0 mg/kg/injection, schedule: Q01DX005 (ip), vehicle: saline with Tween-80
[3] = dose: 200.0 mg/kg/injection, schedule: Q01DX005 (ip), vehicle: saline with Tween-80
[4] = dose: 50.0 mg/kg/injection, schedule: Q01DX009 (ip), vehicle: saline with Tween-80
[5] = dose: 100.0 mg/kg/injection, schedule: Q01DX009 (ip), vehicle: saline with Tween-80
[6] = dose: 200.0 mg/kg/injection, schedule: Q01DX009 (ip), vehicle: saline with Tween-80
[7] = dose: 50.0 mg/kg/injection, schedule: Q01DX005 (ip), vehicle: Klucel (hydroxypropylcellulose) (HPC)
[8] = dose: 100.0 mg/kg/injection, schedule: Q01DX005 (ip), vehicle: Klucel (hydroxypropylcellulose) (HPC)
[9] = dose: 200.0 mg/kg/injection, schedule: Q01DX005 (ip), vehicle: Klucel (hydroxypropylcellulose) (HPC)

In the case of `COC1NC(=O)NC(=O)C1=[N+]=[N-]` (centres undefined), the T/C (dose: 2.5 mg/kg/injection, schedule: Q01DX009 (ip), vehicle: saline) is reported as 168 % of control, the T/C (dose: 5.0 mg/kg/injection, schedule: Q01DX009 (ip), vehicle: saline sonified) is reported as 163 % of control and the T/C (dose: 5.0 mg/kg/injection, schedule: Q01DX009 (ip), vehicle: saline with Tween-80) is reported as 154 % of control. For the same compound, the T/C (dose: 7.5 mg/kg/injection, schedule: Q01DX009 (ip), vehicle: saline with Tween-80) was 191 % of control, the T/C (dose: 10.0 mg/kg/injection, schedule: Q01DX009 (ip), vehicle: saline sonified) was 159 % of control and the T/C (dose: 75.0 micrograms/kg/injection, schedule: Q01DX009 (ip), vehicle: saline) was 109 % of control. For the same compound, the T/C (dose: 150.0 micrograms/kg/injection, schedule: Q01DX009 (ip), vehicle: saline) was 113 % of control.

For `CCCCCCCCCCC(=O)CCCCC`, the T/C (dose: 100.0 mg/kg/injection, schedule: Q04DX003 (ip), vehicle: other) was 104 % of control, the T/C (dose: 200.0 mg/kg/injection, schedule: Q04DX003 (ip), vehicle: other) was 109 % of control and the T/C (dose: 400.0 mg/kg/injection, schedule: Q04DX003 (ip), vehicle: other) was 113 % of control.

`Nc1nc2[nH]c(=O)[nH]c2c(=O)[nH]1` was tested, and the T/C [1] was 94 % of control, the T/C [2] was 93 % of control and the T/C [3] was 91 % of control.

For `Cc1nc2c(c(-c3ccc(Cl)cc3)n1)Cc1c(ccc3ccccc13)O2`, the T/C (dose: 50.0 mg/kg/injection, schedule: Q01DX009 (ip), vehicle: saline) was 107 % of control and 95 % of control, the T/C (dose: 100.0 mg/kg/injection, schedule: Q01DX009 (ip), vehicle: saline) was 100 % of control and the T/C (dose: 200.0 mg/kg/injection, schedule: Q01DX009 (ip), vehicle: saline) was 100 % of control and 94 % of control.

In the case of `Oc1ccc(-c2csc(Nc3ccccn3)n2)cc1O`, the T/C [1] is reported as 98 % of control, the T/C [2] is reported as 106 % of control and the T/C [3] is reported as 104 % of control.

With `CN=C1N=C(c2ccc(C(C)(C)C)cc2)C(O)(c2ccc(C(C)(C)C)cc2)N1` (centres undefined) the T/C (dose: 25.0 mg/kg/injection, schedule: Q04DX002 (ip), vehicle: saline with Tween-80) was 104 % of control and the T/C (dose: 50.0 mg/kg/injection, schedule: Q04DX002 (ip), vehicle: saline with Tween-80) was 117 % of control.

For `O=C1CSC(c2ccc(F)c(F)c2)N1c1nncs1` (centres undefined), the T/C (dose: 60.0 mg/kg/injection, schedule: Q01DX005 (ip), vehicle: saline with Tween-80) was 99 % of control, the T/C (dose: 120.0 mg/kg/injection, schedule: Q01DX005 (ip), vehicle: saline with Tween-80) was 101 % of control and the T/C (dose: 240.0 mg/kg/injection, schedule: Q01DX005 (ip), vehicle: saline with Tween-80) was 101 % of control.

For `N#CNc1nc2ccccc2[nH]1`, the T/C (dose: 6.25 mg/kg/injection, schedule: Q01DX009 (ip), vehicle: Klucel (hydroxypropylcellulose) (HPC)) was 100 % of control, the T/C (dose: 12.5 mg/kg/injection, schedule: Q01DX009 (ip), vehicle: Klucel (hydroxypropylcellulose) (HPC)) was 103 % of control and the T/C (dose: 25.0 mg/kg/injection, schedule: Q01DX009 (ip), vehicle: Klucel (hydroxypropylcellulose) (HPC)) was 108 % of control. For the same compound, the T/C (dose: 50.0 mg/kg/injection, schedule: Q01DX009 (ip), vehicle: Klucel (hydroxypropylcellulose) (HPC)) was 101 % of control and the T/C (dose: 100.0 mg/kg/injection, schedule: Q01DX009 (ip), vehicle: Klucel (hydroxypropylcellulose) (HPC)) was 100 % of control.

In the case of `C[Si](C)(C)c1c[nH]c(=O)[nH]c1=O`, the T/C [4] is reported as 102 % of control, the T/C [5] is reported as 98 % of control and 96 % of control and the T/C [6] is reported as 102 % of control.

In the case of `CCCCn1c(C)nc2c(cnn2C)c1=O`, the T/C [7] is reported as 114 % of control, the T/C [8] is reported as 101 % of control and the T/C [9] is reported as 108 % of control.

In the case of `N#CCSCC(=O)c1ccccc1`, the T/C [1] is reported as 105 % of control, the T/C [2] is reported as 105 % of control and the T/C [3] is reported as 112 % of control.

With `O=S(=O)(O)c1ccccc1P(c1ccccc1)c1ccccc1` the T/C [7] was 98 % of control, the T/C [8] was 94 % of control and the T/C [9] was 88 % of control.

For `CC(NNC(=S)NCc1ccccc1)c1cc2ccccc2cn1` (centres undefined), the T/C [1] was 106 % of control and 113 % of control, the T/C [2] was 119 % of control and the T/C [3] was 160 % of control.

With `CC(C)(C)OC(=O)NC(CCCN=C(N)N)C(=O)O` (centres undefined) the T/C (dose: 50.0 mg/kg/injection, schedule: Q01DX005 (ip), vehicle: saline) was 100 % of control, the T/C (dose: 100.0 mg/kg/injection, schedule: Q01DX005 (ip), vehicle: saline) was 94 % of control and the T/C (dose: 200.0 mg/kg/injection, schedule: Q01DX005 (ip), vehicle: saline) was 100 % of control.

`C=CCc1ccccc1C` was tested, and the T/C [5] was 109 % of control and the T/C [6] was 101 % of control.

In the case of `CC(=O)/C=C\c1ccc(Cl)cc1`, the T/C [4] is reported as 100 % of control, the T/C [5] is reported as 91 % of control and the T/C (dose: 100.0 mg/kg/injection, schedule: Q04DX003 (ip), vehicle: saline with Tween-80) is reported as 113 % of control. The T/C (dose: 200.0 mg/kg/injection, schedule: Q04DX003 (ip), vehicle: saline with Tween-80) was 98 % of control and the T/C (dose: 400.0 mg/kg/injection, schedule: Q04DX003 (ip), vehicle: saline with Tween-80) was 91 % of control.

Source: PubChem BioAssay AID330 (DTP/NCI, 2004)
